Reference: PubChem BioAssay (NCI)
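The compound was tested at five concentrations on cells cultured in 96-well plates, with a 48-hour exposure period. TGI marks complete inhibition of growth.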

What was measured:
Assay in all cases: growth of human tumour cells (NCI), 48 h
MDA-MB-231 breast = system: MDA-MB-231 breast
UACC-257 melanoma = system: UACC-257 melanoma
HCT-15 colon = system: HCT-15 colon
ACHN renal = system: ACHN renal
SR leukemia = system: SR leukemia
CCRF-CEM leukemia = system: CCRF-CEM leukemia
SN12C renal = system: SN12C renal
SK-MEL-2 melanoma = system: SK-MEL-2 melanoma
HT29 colon = system: HT29 colon
M14 melanoma = system: M14 melanoma
SK-MEL-5 melanoma = system: SK-MEL-5 melanoma
NCI-H226 lung = system: NCI-H226 lung
KM12 colon = system: KM12 colon
BT-549 breast = system: BT-549 breast
MDA-MB-435 = system: MDA-MB-435
SF-268 CNS = system: SF-268 CNS
MALME-3M melanoma = system: MALME-3M melanoma
OVCAR-8 ovarian = system: OVCAR-8 ovarian
A498 renal = system: A498 renal
T-47D breast = system: T-47D breast
UACC-62 melanoma = system: UACC-62 melanoma
SK-MEL-28 melanoma = system: SK-MEL-28 melanoma
EKVX NSCLC = system: EKVX NSCLC
HOP-92 NSCLC = system: HOP-92 NSCLC
DU-145 prostate = system: DU-145 prostate
CAKI-1 renal = system: CAKI-1 renal
SW-620 colon = system: SW-620 colon
LOX IMVI melanoma = system: LOX IMVI melanoma
NCI-H460 lung = system: NCI-H460 lung
PC-3 prostate = system: PC-3 prostate
SF-539 CNS = system: SF-539 CNS
SNB-19 CNS = system: SNB-19 CNS
RPMI-8226 leukemia = system: RPMI-8226 leukemia
SF-295 CNS = system: SF-295 CNS
OVCAR-5 ovarian = system: OVCAR-5 ovarian
OVCAR-4 ovarian = system: OVCAR-4 ovarian
786-0 renal = system: 786-0 renal
OVCAR-3 ovarian = system: OVCAR-3 ovarian
HCC-2998 colon = system: HCC-2998 colon
U251 CNS = system: U251 CNS
HOP-62 NSCLC = system: HOP-62 NSCLC
MOLT-4 leukemia = system: MOLT-4 leukemia
IGROV1 ovarian = system: IGROV1 ovarian
NCI-H522 lung = system: NCI-H522 lung
MDA-N = system: MDA-N
HCT-116 colon = system: HCT-116 colon
HL-60(TB) leukemia = system: HL-60(TB) leukemia
SK-OV-3 ovarian = system: SK-OV-3 ovarian
HS 578T breast = system: HS 578T breast
A549 NSCLC = system: A549 NSCLC
NCI-H23 lung = system: NCI-H23 lung
COLO 205 colon = system: COLO 205 colon
MCF7 breast = system: MCF7 breast
SNB-75 CNS = system: SNB-75 CNS
NCI/ADR-RES ovarian = system: NCI/ADR-RES ovarian
TK-10 renal = system: TK-10 renal
UO-31 renal = system: UO-31 renal
RXF 393 renal = system: RXF 393 renal

COc1ccc2c(c1)C(N)=C(c1ccccc1)C2=O
TGI (MDA-MB-231 breast): > 100 µM
TGI (UACC-257 melanoma): > 100 µM
TGI (HCT-15 colon): > 100 µM
TGI (ACHN renal): > 100 µM
TGI (SR leukemia): > 100 µM
TGI (CCRF-CEM leukemia): > 100 µM
TGI (SN12C renal): > 100 µM
TGI (SK-MEL-2 melanoma): > 100 µM
TGI (HT29 colon): > 100 µM
TGI (M14 melanoma): > 100 µM
TGI (SK-MEL-5 melanoma): > 100 µM
TGI (NCI-H226 lung): > 100 µM
TGI (KM12 colon): > 100 µM
TGI (BT-549 breast): > 100 µM
TGI (MDA-MB-435): > 100 µM
TGI (SF-268 CNS): > 100 µM
TGI (MALME-3M melanoma): > 100 µM
TGI (OVCAR-8 ovarian): > 100 µM
TGI (A498 renal): > 100 µM
TGI (T-47D breast): > 100 µM
TGI (UACC-62 melanoma): > 100 µM
TGI (SK-MEL-28 melanoma): > 100 µM
TGI (EKVX NSCLC): > 100 µM
TGI (HOP-92 NSCLC): > 100 µM
TGI (DU-145 prostate): > 100 µM
TGI (CAKI-1 renal): > 100 µM
TGI (SW-620 colon): > 100 µM
TGI (LOX IMVI melanoma): > 100 µM
TGI (NCI-H460 lung): > 100 µM
TGI (PC-3 prostate): > 100 µM
TGI (SF-539 CNS): > 100 µM
TGI (SNB-19 CNS): > 100 µM
TGI (RPMI-8226 leukemia): > 100 µM
TGI (SF-295 CNS): > 100 µM
TGI (OVCAR-5 ovarian): > 100 µM
TGI (OVCAR-4 ovarian): > 100 µM
TGI (786-0 renal): > 100 µM
TGI (OVCAR-3 ovarian): > 100 µM
TGI (HCC-2998 colon): > 100 µM
TGI (U251 CNS): > 100 µM
TGI (HOP-62 NSCLC): > 100 µM
TGI (MOLT-4 leukemia): > 100 µM
TGI (IGROV1 ovarian): > 100 µM
TGI (NCI-H522 lung): > 100 µM
TGI (MDA-N): > 100 µM
TGI (HCT-116 colon): > 100 µM
TGI (HL-60(TB) leukemia): > 100 µM
TGI (SK-OV-3 ovarian): > 100 µM
TGI (HS 578T breast): 56.3 µM
TGI (A549 NSCLC): > 100 µM
TGI (NCI-H23 lung): > 100 µM
TGI (COLO 205 colon): > 100 µM
TGI (MCF7 breast): > 100 µM
TGI (SNB-75 CNS): 70 µM
TGI (NCI/ADR-RES ovarian): > 100 µM
TGI (TK-10 renal): > 100 µM

CSC(CC(=O)O)C(=O)O (centres undefined)
TGI (MDA-MB-231 breast): > 100 µM
TGI (UACC-257 melanoma): > 100 µM
TGI (HCT-15 colon): > 100 µM
TGI (ACHN renal): > 100 µM
TGI (SR leukemia): > 100 µM
TGI (CCRF-CEM leukemia): > 100 µM
TGI (UO-31 renal): > 100 µM
TGI (SN12C renal): > 100 µM
TGI (SK-MEL-2 melanoma): > 100 µM
TGI (HT29 colon): > 100 µM
TGI (M14 melanoma): > 100 µM
TGI (SK-MEL-5 melanoma): > 100 µM
TGI (NCI-H226 lung): > 100 µM
TGI (RXF 393 renal): > 100 µM
TGI (KM12 colon): > 100 µM
TGI (BT-549 breast): > 100 µM
TGI (MDA-MB-435): > 100 µM
TGI (SF-268 CNS): > 100 µM
TGI (MALME-3M melanoma): > 100 µM
TGI (OVCAR-8 ovarian): > 100 µM
TGI (A498 renal): > 100 µM
TGI (T-47D breast): > 100 µM
TGI (UACC-62 melanoma): > 100 µM
TGI (SK-MEL-28 melanoma): > 100 µM
TGI (EKVX NSCLC): > 100 µM
TGI (HOP-92 NSCLC): > 100 µM
TGI (DU-145 prostate): > 100 µM
TGI (CAKI-1 renal): > 100 µM
TGI (SW-620 colon): > 100 µM
TGI (LOX IMVI melanoma): > 100 µM
TGI (NCI-H460 lung): > 100 µM
TGI (PC-3 prostate): > 100 µM
TGI (SF-539 CNS): > 100 µM
TGI (SNB-19 CNS): > 100 µM
TGI (RPMI-8226 leukemia): > 100 µM
TGI (SF-295 CNS): > 100 µM
TGI (OVCAR-5 ovarian): > 100 µM
TGI (OVCAR-4 ovarian): > 100 µM
TGI (786-0 renal): > 100 µM
TGI (OVCAR-3 ovarian): > 100 µM
TGI (HCC-2998 colon): > 100 µM
TGI (U251 CNS): > 100 µM
TGI (HOP-62 NSCLC): > 100 µM
TGI (MOLT-4 leukemia): > 100 µM
TGI (IGROV1 ovarian): > 100 µM
TGI (NCI-H522 lung): > 100 µM
TGI (MDA-N): > 100 µM
TGI (HCT-116 colon): > 100 µM
TGI (HL-60(TB) leukemia): > 100 µM
TGI (SK-OV-3 ovarian): > 100 µM
TGI (HS 578T breast): > 100 µM
TGI (A549 NSCLC): > 100 µM
TGI (NCI-H23 lung): > 100 µM
TGI (COLO 205 colon): > 100 µM
TGI (MCF7 breast): > 100 µM
TGI (SNB-75 CNS): > 100 µM
TGI (NCI/ADR-RES ovarian): > 100 µM
TGI (TK-10 renal): > 100 µM
